Columns and labels:
BGC-823 [1] = assay: Antiproliferative activity against human BGC823 cell line at 5 uM by MTT assay; type: functional
PC-3 [2] = assay: Antiproliferative activity against human PC3 cell line at 5 uM by MTT assay; type: functional
PC-3 [3] = assay: Antiproliferative activity against human PC3 cell line at 1 uM by MTT assay; type: functional
Bcap37 [4] = assay: Antiproliferative activity against human Bcap37 cell line at 5 uM by MTT assay; type: functional
Bcap37 [5] = assay: Antiproliferative activity against human Bcap37 cell line at 1 uM by MTT assay; type: functional
BGC-823 [6] = assay: Antiproliferative activity against human BGC823 cell line at 1 uM by MTT assay; type: functional
PC-3 [7] = assay: Antiproliferative activity against human PC3 cell line by MTT assay; type: functional, cell-based

| SMILES | inhibition at 5 µM (BGC-823 [1]) [%] | inhibition at 5 µM (PC-3 [2]) [%] | inhibition at 1 µM (PC-3 [3]) [%] | inhibition at 5 µM (Bcap37 [4]) [%] | inhibition at 1 µM (Bcap37 [5]) [%] | inhibition at 1 µM (BGC-823 [6]) [%] | IC50 (PC-3 [7]) [µM] |
| --- | --- | --- | --- | --- | --- | --- | --- |
| COc1cc(C(=O)N/N=C/c2ccc(C(F)(F)F)cc2)cc(OC)c1OC | 56.3 | 61.6 | 59.9 | 65.6 | 61.8 | 47.4 |  |
| COc1ccc(OC)c(/C=N/NC(=O)c2cc(OC)c(OC)c(OC)c2)c1 | 10.1 | 51.7 | 30.9 | 0 | 0 | 0.1 |  |
| COc1cc(C(=O)N/N=C/c2ccc(Cl)c(Cl)c2)cc(OC)c1OC | 32.7 | 31.6 | 13.5 | 0.6 | 0.1 | 29.6 |  |
| COc1cc(C2=NN(C(C)=O)C(c3cc(Cl)cc(Cl)c3)O2)cc(OC)c1OC (configuration not stated) | 6.6 | 93.9 | 52.7 | 1.3 | -1.1 | 0 | 1.7 |
| COc1cc(C(=O)N/N=C/c2ccc(F)c(F)c2)cc(OC)c1OC | 51.9 | 43.7 | 35.1 | 68.2 | 58.5 | 33.1 |  |
| COc1cc(C2=NN(C(C)=O)C(c3cc(OC)c(OC)c(OC)c3)O2)cc(OC)c1OC (configuration not stated) | -1.4 | 0.1 | -1.8 | 5.4 | 5.1 | -1.8 |  |
| COc1cc(C(=O)N/N=C/c2ccc(F)cc2)cc(OC)c1OC | 61.1 | 82.8 | 76 | 55.5 | 50.2 | 50.9 |  |
| COc1cc(C(=O)N/N=C/c2cccc(F)c2)cc(OC)c1OC | 44.8 | 64.1 | 53.5 | 49 | 38 | 13.6 |  |
| COc1ccc(/C=N/NC(=O)c2cc(OC)c(OC)c(OC)c2)c(OC)c1 | 3.6 | 22.2 | 10 | -0.1 | -3 | -6.9 |  |
| COc1cc(C2=NN(C(C)=O)C(c3cccc(C(F)(F)F)c3)O2)cc(OC)c1OC (configuration not stated) | 41.1 | 43.6 | 30.1 | 35.5 | 10.1 | 27.9 |  |
| COc1cc(C(=O)N/N=C/c2cc(Cl)cc(Cl)c2)cc(OC)c1OC | 9.2 | 46.3 | 22.1 | 3.6 | -5.4 | -7.5 |  |
| COc1cc(C2=NN(C(C)=O)C(c3ccc(Cl)c([N+](=O)[O-])c3)O2)cc(OC)c1OC (configuration not stated) | 0 | 61.4 | 43.3 | 1 | -2.9 | -2.3 |  |
| COc1ccc(OC)c(C2OC(c3cc(OC)c(OC)c(OC)c3)=NN2C(C)=O)c1 (configuration not stated) | 18.2 | 43.2 | 37.2 | 2.3 | -3.8 | 0.4 |  |
| COc1cc(C2=NN(C(C)=O)C(c3ccc(F)c(F)c3)O2)cc(OC)c1OC (configuration not stated) | 21.6 | 46.9 | 35.5 | 2.3 | -1.3 | 18.3 |  |
| COc1cc(C2=NN(C(C)=O)C(c3c(Cl)cccc3Cl)O2)cc(OC)c1OC (configuration not stated) | 15.9 | -2.2 | 5.1 | 45.8 | 9.3 | -1.4 |  |
| COc1cc(C(=O)N/N=C/c2ccccc2C(F)(F)F)cc(OC)c1OC | 35.6 | 52.9 | 45 | 80 | 56.8 | 22.1 |  |
| COc1cc(C(=O)N/N=C/c2ccc(Cl)c([N+](=O)[O-])c2)cc(OC)c1OC | 2.3 | 42.3 | 32.1 | 9.6 | -4.4 | -5.8 |  |
| COc1cc(C2=NN(C(C)=O)C(c3cccc(OC)c3OC)O2)cc(OC)c1OC (configuration not stated) | 17.5 | 58.2 | 35 | 2.8 | 0.1 | 3.8 |  |
| COc1cc(C2=NN(C(C)=O)C(c3ccc(C(F)(F)F)cc3)O2)cc(OC)c1OC (configuration not stated) | 3.4 | -0.7 | -11 | 14.2 | -3.5 | 4.2 |  |
| COc1cc(C2=NN(C(C)=O)C(c3ccccc3F)O2)cc(OC)c1OC (configuration not stated) | 32.8 | 31.6 | 13.5 | -2 | -1.5 | 29.6 |  |
| COc1cc(/C=N/NC(=O)c2cc(OC)c(OC)c(OC)c2)cc(OC)c1OC | 22.9 | 48.3 | 8.5 | 13.6 | 11.8 | -5 |  |
| COc1cc(C(=O)N/N=C/c2ccccc2F)cc(OC)c1OC | 76.5 | 81.8 | 70.6 | 81.8 | 58.9 | 51.6 |  |
| COc1cc(C2=NN(C(C)=O)C(c3ccc(Cl)c(Cl)c3)O2)cc(OC)c1OC (configuration not stated) | 3.1 | 26.1 | 28.1 | 0 | -3.2 | -0.8 |  |
| COc1cc(C(=O)N/N=C/c2cccc(C(F)(F)F)c2)cc(OC)c1OC | 33.8 | 79.8 | 51 | 15.5 | 8.3 | 17.7 |  |
| COc1cc(C(=O)N/N=C/c2c(Cl)cccc2Cl)cc(OC)c1OC | 27.8 | 52.1 | 43 | 2.9 | -7.2 | 0.9 |  |
| COc1cc(C2=NN(C(C)=O)C(c3cccc(F)c3)O2)cc(OC)c1OC (configuration not stated) | 37.7 | 43.5 | 16.5 | 23.8 | 14 | 14.7 |  |
| COc1cc(C2=NN(C(C)=O)C(c3ccc(F)cc3)O2)cc(OC)c1OC (configuration not stated) | 13.3 | 0.1 | 0 | -0.1 | -1.4 | -0.4 |  |
| COc1ccc(C2OC(c3cc(OC)c(OC)c(OC)c3)=NN2C(C)=O)c(OC)c1 (configuration not stated) | -3.1 | 92 | 69.5 | 2.5 | -0.3 | 6.3 | 0.3 |
| COc1cccc(/C=N/NC(=O)c2cc(OC)c(OC)c(OC)c2)c1OC | 14.2 | 67 | 53.2 | 12.3 | -2.3 | -0.1 |  |
| COc1cc(C2=NN(C(C)=O)C(c3ccccc3C(F)(F)F)O2)cc(OC)c1OC (configuration not stated) | 34.8 | 15.2 | -11 | 16.2 | -1.2 | 31.8 |  |

Source: ChEMBL document CHEMBL1149507, “Synthesis, structure, and bioactivity of N'-substituted benzylidene-3,4,5-trimethoxybenzohydrazide and 3-acetyl-2-substituted phenyl-5-(3,4,5-trimethoxyphenyl)-2,3-dihydro-1,3,4-oxadiazole derivatives” (Bioorg Med Chem Lett, 2006)
